Source: PubChem BioAssay AID1963845 (Molecular Pharmacology Branch, DTP, NCI, 2024)

System: 429239-143-T-J1-PDC complex spheroid viability
Experiment: Anticancer human tumor 429239-143-T-J1-PDC patient-derived small cell lung carcinoma cell line growth inhibition [POLQ]
Conditions: for IC50: curve of first compound; for viability, T/C: stronger effect = lower value
Method in brief: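 Three-cell-type spheroids modelling solid tumor plus stroma served as the readout system; POL inhibitors were tested individually and in combination, concentration ranges set by clinical Cmax where known.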

[1] = second compound 0.0316 µM, first compound 0.0316 µM
[2] = second compound 0.0316 µM, first compound 0.1 µM
[3] = second compound 0.0316 µM, first compound 0.316 µM
[4] = second compound 0.0316 µM, first compound 1 µM
[5] = second compound 0.0316 µM, first compound 3.16 µM
[6] = second compound 0.0316 µM, first compound 10 µM
[7] = second compound 0.1 µM, first compound 0.0316 µM
[8] = second compound 0.1 µM, first compound 0.1 µM
[9] = second compound 0.1 µM, first compound 0.316 µM
[10] = second compound 0.1 µM, first compound 1 µM
[11] = second compound 0.1 µM, first compound 3.16 µM
[12] = second compound 0.1 µM, first compound 10 µM
[13] = second compound 0.316 µM, first compound 0.0316 µM
[14] = second compound 0.316 µM, first compound 0.1 µM
[15] = second compound 0.316 µM, first compound 0.316 µM
[16] = second compound 0.316 µM, first compound 1 µM
[17] = second compound 0.316 µM, first compound 3.16 µM
[18] = second compound 0.316 µM, first compound 10 µM
[19] = second compound 1 µM, first compound 0.0316 µM
[20] = second compound 1 µM, first compound 0.1 µM
[21] = second compound 1 µM, first compound 0.316 µM
[22] = second compound 1 µM, first compound 1 µM
[23] = second compound 1 µM, first compound 3.16 µM
[24] = second compound 1 µM, first compound 10 µM
[25] = second compound 3.16 µM, first compound 0.0316 µM
[26] = second compound 3.16 µM, first compound 0.1 µM
[27] = second compound 3.16 µM, first compound 0.316 µM
[28] = second compound 3.16 µM, first compound 1 µM
[29] = second compound 3.16 µM, first compound 3.16 µM
[30] = second compound 3.16 µM, first compound 10 µM
[31] = second compound 10 µM, first compound 0.0316 µM
[32] = second compound 10 µM, first compound 0.1 µM
[33] = second compound 10 µM, first compound 0.316 µM
[34] = second compound 10 µM, first compound 1 µM
[35] = second compound 10 µM, first compound 3.16 µM
[36] = second compound 10 µM, first compound 10 µM
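Further: luminescence signal used as surrogate measure of viable cells; spheroids exposed to compounds for seven days before readout.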
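Wherever viability, T/C is given: 100% = DMSO vehicle control viability as luminescence relative to vehicle.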

CCc1cc2c(N3CCc4c(cc(Cn5ccnc5)cc4-c4cn(C)nc4C(F)(F)F)C3=O)ccnc2c(OC)n1 + Cc1cccc(N(C)C(=O)C2C(O)CCN2c2nc(C)cc(C(F)(F)F)c2C#N)c1
IC50 (second compound 0.0316 µM): > 10 µM | IC50 (second compound 0.1 µM): > 10 µM | IC50 (second compound 0.316 µM): > 10 µM | IC50 (second compound 1 µM): > 10 µM | IC50 (second compound 3.16 µM): > 10 µM | IC50 (second compound 10 µM): 8.42 µM | viability, T/C [1]: 117% | viability, T/C [2]: 102% | viability, T/C [3]: 98.2% | viability, T/C [4]: 88.4% | viability, T/C [5]: 85.3% | viability, T/C [6]: 49.8% | viability, T/C [7]: 103% | viability, T/C [8]: 113% | viability, T/C [9]: 93.2% | viability, T/C [10]: 89.1% | viability, T/C [11]: 85.7% | viability, T/C [12]: 57.6% | viability, T/C [13]: 116% | viability, T/C [14]: 97.8% | viability, T/C [15]: 96.8% | viability, T/C [16]: 86% | viability, T/C [17]: 78.3% | viability, T/C [18]: 56.6% | viability, T/C [19]: 107% | viability, T/C [20]: 95.4% | viability, T/C [21]: 89.2% | viability, T/C [22]: 87.8% | viability, T/C [23]: 86.7% | viability, T/C [24]: 56.6% | viability, T/C [25]: 104% | viability, T/C [26]: 108% | viability, T/C [27]: 96.5% | viability, T/C [28]: 95.6% | viability, T/C [29]: 77.7% | viability, T/C [30]: 50.8% | viability, T/C [31]: 111% | viability, T/C [32]: 91.8% | viability, T/C [33]: 104% | viability, T/C [34]: 96.5% | viability, T/C [35]: 72.2% | viability, T/C [36]: 46.1%

CC(C)n1c(=O)n(C)c2cnc3cc(F)c(-c4ccc(OCCCN5CCCCC5)nc4)cc3c21 + Nc1ccc(C#CCN(C(=O)Cc2ncc(C(F)(F)F)cc2C(F)(F)F)c2ccc(F)cc2)nn1
IC50 (second compound 0.0316 µM): > 10 µM | IC50 (second compound 0.1 µM): > 10 µM | IC50 (second compound 0.316 µM): > 10 µM | IC50 (second compound 1 µM): > 10 µM | IC50 (second compound 3.16 µM): > 10 µM | IC50 (second compound 10 µM): > 10 µM | viability, T/C [1]: 98.5% | viability, T/C [2]: 107% | viability, T/C [3]: 92.2% | viability, T/C [4]: 109% | viability, T/C [5]: 102% | viability, T/C [6]: 97.8% | viability, T/C [7]: 102% | viability, T/C [8]: 105% | viability, T/C [9]: 99.9% | viability, T/C [10]: 102% | viability, T/C [11]: 106% | viability, T/C [12]: 90.9% | viability, T/C [13]: 101% | viability, T/C [14]: 107% | viability, T/C [15]: 93.3% | viability, T/C [16]: 104% | viability, T/C [17]: 106% | viability, T/C [18]: 91.1% | viability, T/C [19]: 99.1% | viability, T/C [20]: 101% | viability, T/C [21]: 105% | viability, T/C [22]: 102% | viability, T/C [23]: 105% | viability, T/C [24]: 93% | viability, T/C [25]: 97.1% | viability, T/C [26]: 91.4% | viability, T/C [27]: 98.9% | viability, T/C [28]: 98.6% | viability, T/C [29]: 100% | viability, T/C [30]: 91.1% | viability, T/C [31]: 105% | viability, T/C [32]: 103% | viability, T/C [33]: 97.3% | viability, T/C [34]: 99.4% | viability, T/C [35]: 91.5% | viability, T/C [36]: 94.3%
